Where two headings read alike, the source gives them in different places.
Columns and labels:
hERG = biological target: T1, hERG (Homo sapiens, UniProt Q12809); assay: hERG fluorescence polarization assay (Predictor hERG kit); assay type: binding
T1 construct: purchased Invitrogen PV5365
Description: hERG Fluorescence Polarization Assay:
Following the manufacturer's protocol, the hERG assay was performed using Predictor hERG Fluorescence Polarization Assay kit (catalog no. PV5365) from Invitrogen. Briefly, FP measurements were performed on an Analyst GT instrument (Molecular Devices, Sunnyvale, Calif.). Measurements were taken in black 384-well plates (Corning #3677), where both the excitation and the emission occurred from the top of the well. The test compounds were dissolved in DMSO and added at several concentrations to the Predictor hERG FP assay buffer containing 4 nM Predictor hERG tracer red and 10 μL of Predictor hERG membrane in a final volume of 20 μL. Drugs were added to triplicate wells. E-4031 as positive control was included in each plate. Plates were then kept on a shaker at room temperature and polarization values were measured after 4 hrs. The inhibition concentration at which 50% of tracer red gets displaced was obtained by fitting the data using a nonlinear regression analysis as implemented in Prism 5.0 (GraphPad Software).

Hsp90 (SKBr3 lysate) = assay: Hsp90 binding assay (fluorescence polarization, cy3B-GM displacement), human cancer cell lysate; conditions: lysate not given
Description: (§1) For the binding studies, fluorescence polarization (FP) assays w-re performed similarly as was previously reported [Du et al. (2007) “High-throughput screening fluorescence polarization assay for tumor-specific Hsp90” J. Biomol. Screen 12:915-924]. Briefly, FP measurements were performed on an Analyst GT instrument (Molecular Devices, Sunnyvale, Calif.). Measurements were taken in black 96-well microtiter plates (Corning #3650) where both the excitation and the emission occurred from the top of the well. A stock of 10 μM cy3B-GM was prepared in DMSO and diluted with HFB buffer (20 mM Hepes (K), pH 7.3, 50 mM KCl, 2 mM DTT, 5 mM MgCl2, 20 mM Na2MoO4, and 0.01% NP40 with 0.1 mg/mL BGG). The test compounds were dissolved in DMSO and added at several concentrations to the HFB assay buffer containing both 6 nM cy3B-GM and transgenic mouse brain lysate (6 μg JNPL3 lysate) or human cancer cell lysate (3 μg SKBr3 lysate) in a final volume of 100 μL. Drugs were added to triplicate wells. Free cy3B-GM (6 nM cy3B-GM), bound cy3B-GM (6 nM cy3B-GM+lysate, as indicated above) and buffer only containing wells (background) were included as controls in each plate. Plates were incubated on a shake at 4° C., and polarization values measured at 24 h. Percentage inhibition was calculated as follows: (% Control)=100−((mPc−mPf)/(mPb−mPf))×100, where mPc is the recorded mP from compound wells, mPf is the average recorded mP from cy3B-GM-only wells, and mPb is the average recorded mP from wells containing both cy3B-GM and lysate, and plotted against values of competitor concentrations. The inhibitor concentration at which 50% of bound cy3B-GM was displaced was obtained by fitting the data using a nonlinear regression analysis as implemented in Prism 4.0 (GraphPad Software).

Hsp90 = assay: as above; conditions: fluorescence polarization, cy3B-GM displacement; the table does not say which lysate (SKBr3 or JNPL3)
Description: as §1

[1] = Predictor hERG fluorescence polarization, displacement of tracer red, read after 4 hrs, read-out: hERG assay

T1 sequence (Q12809 whole entry): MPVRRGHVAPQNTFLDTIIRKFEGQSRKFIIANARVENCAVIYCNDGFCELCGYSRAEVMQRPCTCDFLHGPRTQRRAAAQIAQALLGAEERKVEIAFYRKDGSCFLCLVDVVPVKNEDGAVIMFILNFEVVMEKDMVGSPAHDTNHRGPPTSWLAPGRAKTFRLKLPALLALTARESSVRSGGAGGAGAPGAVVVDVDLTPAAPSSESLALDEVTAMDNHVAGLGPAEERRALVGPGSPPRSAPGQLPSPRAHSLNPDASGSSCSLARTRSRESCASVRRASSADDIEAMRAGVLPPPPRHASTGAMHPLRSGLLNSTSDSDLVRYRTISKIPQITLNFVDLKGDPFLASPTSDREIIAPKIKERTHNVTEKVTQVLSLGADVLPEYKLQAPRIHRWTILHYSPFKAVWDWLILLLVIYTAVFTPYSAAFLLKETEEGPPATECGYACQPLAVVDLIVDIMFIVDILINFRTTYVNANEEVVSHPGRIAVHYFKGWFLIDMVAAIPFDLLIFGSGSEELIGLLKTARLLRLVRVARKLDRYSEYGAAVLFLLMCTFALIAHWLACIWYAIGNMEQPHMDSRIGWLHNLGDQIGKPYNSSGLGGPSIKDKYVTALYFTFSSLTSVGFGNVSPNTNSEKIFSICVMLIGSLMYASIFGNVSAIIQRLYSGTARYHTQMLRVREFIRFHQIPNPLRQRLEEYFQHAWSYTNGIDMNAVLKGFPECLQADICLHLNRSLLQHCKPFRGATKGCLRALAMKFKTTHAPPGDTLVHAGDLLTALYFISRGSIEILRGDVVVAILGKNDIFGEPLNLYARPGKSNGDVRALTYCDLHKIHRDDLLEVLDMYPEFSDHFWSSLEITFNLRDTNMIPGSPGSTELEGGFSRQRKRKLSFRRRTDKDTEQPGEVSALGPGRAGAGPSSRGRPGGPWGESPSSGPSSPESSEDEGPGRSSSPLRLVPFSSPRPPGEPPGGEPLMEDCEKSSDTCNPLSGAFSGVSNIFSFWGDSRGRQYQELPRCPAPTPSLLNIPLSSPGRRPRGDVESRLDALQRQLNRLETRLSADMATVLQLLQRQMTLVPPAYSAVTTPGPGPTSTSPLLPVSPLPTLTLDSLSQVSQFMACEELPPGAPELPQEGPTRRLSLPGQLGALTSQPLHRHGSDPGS

SMILES | IC50 (hERG; [1]) [nM] | Hsp90 binding affinity (in words, referring to Table 12) (Hsp90 (SKBr3 lysate)) | IC50 (Hsp90) [nM] | IC50 (hERG; concentration displacing 50% of Predictor hERG tracer red, read-out: hERG assay result) [nM]
CC(C)NS(=O)(=O)CCCn1c(Sc2cc3c(cc2I)OCO3)nc2c(N)ncnc21 [Compound 1A-15, 3-[6-Amino-8-(6-iodo-benzo[1,3]dioxol-5-ylsulfanyl)-purin-9-yl]-propane-1-sulfonic acid isopropylamide] | > 100000 | high level of binding affinity | 20.5 | 
CC(C)S(=O)(=O)NCCCn1c(Sc2cc3c(cc2I)OCO3)nc2c(N)ncnc21 [Compound 1A-22, Propane-2-sulfonic acid {3-[6-amino-8-(6-iodo-benzo[1,3]dioxol-5-ylsulfanyl)-purin-9-yl]-propyl}-amide] | > 100000 | high level of binding affinity | 47 | 
CC(C)(C)[S+]([O-])NCCCn1c(Sc2cc3c(cc2I)OCO3)nc2c(N)ncnc21 (stereo not shown) [Compound 1A-26, 2-Methyl-propane-2-sulfinic acid {3-[6-amino-8-(6-iodo-benzo[1,3]dioxol-5-ylsulfanyl)-purin-9-yl]-propyl}-amide] | > 100000 |  | 12 | 
CC(C)(C)C(=O)NCCCn1c(Sc2cc3c(cc2I)OCO3)nc2c(N)ncnc21 [Compound 1A-43, N-(3-(6-amino-8-((6-iodobenzo[d][1,3]dioxol-5-yl)thio)-9H-purin-9-yl)propyl)pivalamide] | > 100000 |  | 11 | 
Nc1ncnc2c1nc(Sc1cc3c(cc1I)OCO3)n2CCCNC(=O)C1CC1 [Compound 1A-45, N-(3-(6-amino-8-((6-iodobenzo[d][1,3]dioxol-5-yl)thio)-9H-purin-9-yl)propyl)cyclopropane carboxamide] | > 100000 |  | 9.8 | 
CC(C)(O)C(=O)NCCCn1c(Sc2cc3c(cc2I)OCO3)nc2c(N)ncnc21 [Compound 1A-48, N-(3-(6-Amino-8-((6-iodobenzo[d][1,3]dioxol-5-yl)thio)-9H-purin-9-yl)propyl)-2-hydroxy-2-methylpropanamide] | 12000 |  | 22.1 | 
C#Cc1cc2c(cc1Sc1nc3c(N)ncnc3n1CCCNS(=O)(=O)C1CC1)OCO2 [Compound 1B-28, Cyclopropanesulfonic acid {3-[6-amino-8-(6-ethynyl-benzo[1,3]dioxol-5-ylsulfanyl)-purin-9-yl]-propyl}-amide] | > 100000 | high level of binding affinity | 53 | 
C#Cc1cc2c(cc1Sc1nc3c(N)ncnc3n1CCCNC(=O)C(C)(C)C)OCO2 [Compound 1B-43, N-{3-[6-Amino-8-(6-ethynyl-benzo[1,3]dioxol-5-ylsulfanyl)-purin-9-yl]-propyl}-2,2-dimethyl-propionamide] | > 100000 | high level of binding affinity | 28 | 
C#Cc1cc2c(cc1Sc1nc3c(N)ncnc3n1CCCNC(=O)C1CC1)OCO2 [Compound 1B-45, Cyclopropanecarboxylic acid {3-(6-amino-8-(6-ethynyl-benzo[1,3]dioxol-5-ylsulfanyl)-purin-9-yl]-propyl}-amide] | > 100000 | high level of binding affinity | 37 | 
CC(C)(C)[S+]([O-])NCCCn1c(Sc2cc3c(cc2I)CCC3)nc2c(N)ncnc21 (stereo not shown) [Compound 3A-26, 2-Methyl-propane-2-sulfinic acid {3-[6-amino-8-(6-iodo-indan-5-ylsulfanyl)-purin-9-yl]-propyl}-amide] |  | high level of binding affinity | 20.1 | 
C#Cc1cc2c(cc1Sc1nc3c(N)ncnc3n1CCCNS(C)(=O)=O)CCC2 [Compound 3A-43, N-{3-[6-Amino-8-(6-ethynyl-indan-5-ylsulfanyl)-purin-9-yl]-propyl}-methanesulfonamide] |  | high level of binding affinity | 37.4 | 
CC(C)NCCCn1c(Sc2cc3c(cc2I)OCO3)nc2c(N)ncnc21 [PU-H71, reference compound] |  |  |  | 1000
